Measurements from PMC9917184, “Synthesis and Biological Evaluation of Potential Oncoimmunomodulator Agents” (International Journal of Molecular Sciences, 2023).
Read-outs that look alike come from different tables or passages of the source.

Experiments:
membrane PD-L1 = biological target: T1, membrane PD-L1 (Homo sapiens, UniProt Q9NZQ7); experiment: Membrane PD-L1 relative quantification by flow cytometry in cancer cells co-cultured with Jurkat T cells; assay type: cell-based; settings: 24 h; for remaining activity at 100 µM / inhibition at 100 µM: Jurkat; for remaining activity at 100 µM: relative to non-treated co-cultures, read-out: % PDL1 (membrane); for inhibition at 100 µM: read-out: membrane PD-L1 inhibition rate
T1 construct: Alexa Fluor® 647 Rabbit monoclonal Anti-PD-L1 (ab215251); endogenous in cells; host or cells: HT-29, MCF-7, A-549 (A17: MCF-7 only; A14: IFN-gamma-stimulated cancer cells co-cultured with Jurkat T cells)
Method: (§1) We determined by flow cytometry the effect of these compounds on the expression of membrane PD-L1 in cancer cells when they were co-cultured with immune cells. Thus, interferon γ-stimulated cancer cells were treated for 24 h with the compounds at 100 μM in presence of Jurkat T cells. Then, cells were fixed and treated with anti-PD-L1 conjugated to AlexaFluor®647. We took advantage of the versatility of flow cytometry to simultaneously measure the expression of membrane VEGFR-2 by using anti-VEGFR-2 conjugated to fluorescein.
(§2) To study the effect of the compounds on every biological target in co-cultured cancer cell lines, the compounds were incubated for 24h as described before.
(§3) To detect membrane PD-L1 and VEGFR-2, after the cell treatments, they were collected, fixed with 4% in PBS paraformaldehyde, and stained with FITC Mouse monoclonal Anti-Human VEGFR-2 (ab184903) and Alexa Fluor® 647 Rabbit monoclonal Anti-PD-L1 (ab215251).

membrane VEGFR-2 = experiment: Membrane VEGFR-2 relative quantification by flow cytometry in cancer cells co-cultured with Jurkat T cells; assay type: cell-based, human; settings: 100 μM, 24 h; for %VEGFR2 (membrane): relative to non-treated co-cultures
Method: as §1, §2, §3

Jurkat T cells = experiment: Jurkat T cell viability in co-culture with cancer cells (flow cytometry count); assay type: cell-based; settings: Homo sapiens, 24 h, read-out: percentage of living Jurkat cells relative to non-treated co-cultures
Method: (§4) The effect of the synthesized compounds on tumor cell proliferation in the presence of PD-1-expressing Jurkat T cells was also studied. This assay was carried out, as in the previous experiments, in the HT29, MCF7, and A549 cell lines (see Table 4). Interferon γ-stimulated cancer cells were treated for 24 h with the compounds at 100 μM in presence of Jurkat T cells. Then, cells were counted using flow cytometry. The percentage of living cells relative to non-treated co-cultures (control) was established for both cancer and immune cells in every co-culture.
(§5) To study the effect of the compounds on the cell viability in co-culture with Jurkat T cells or THP-1 cells, 10^5 or 2 × 10^5 of the corresponding cancer cells line per well were seeded and incubated for 24 h, then the medium was changed by one cell culture medium supplemented with IFN-γ (10 ng/mL; human, Invitrogen®) and containing 5 × 10^5 or 10^5 Jurkat T cells or THP-1, respectively, per well and 100 µM of the corresponding compound or DMSO for the […] control. After 24 h/48 h of incubation, supernatants were collected to determine Jurkat T or THP-1 living cells, and on the other hand, corresponding cancer cells were collected with trypsin. Both types of suspension cells were fixed with 4% in PBS paraformaldehyde and counted by flow cytometry.

c-Myc gene expression = c-Myc gene expression by RT-qPCR in MCF-7; assay type: cell-based, human; settings: MCF-7, 100 µM, 48 h, control = 100
Method: We also studied the effect of compounds 3, 5, and 7 on both c-Myc and PD-L1 gene expression by RT-qPCR. For this study, we treated MCF-7 cells with 100 µM of the abovementioned compounds, and DMSO was used as a negative control and BMS-8 as a reference compound. After 48 h, cells were lysated, and after the extraction of their mRNA, a RT-pPCR assay was performed as described in the Experimental section.
MCF-7 cells at 70–80% confluence were collected, and 1.5 × 10^5 cells were placed in a six-well plate in 1.5 mL of medium. After 24h, cells were incubated with the corresponding compounds for 48 h. Cells were collected, and the total cellular RNA from MCF-7 cells was isolated using the Ambion RNA extraction kit according to the manufacturer’s instructions. The cDNA was synthesized by MMLV-RT with […] of extracted RNA and oligo(dT)15 according to the manufacturer’s instructions. Genes were amplified by a thermal cycler and StepOnePlus™ TaqMan® probes. TaqMan® Gene Expression Master Mix Fast containing the appropriate buffer for the amplification conditions, dNTPs, thermostable DNA polymerase enzymes, and a passive reference probe was used. To amplify each of the genes, the predesigned primers sold by Life Technologies TaqMan® Gene Expression Assays, Hs99999903-m1 (β-actin), Hs00153408-m1 (c-Myc), and Hs00204257-m1, (PD-L1) were used.

A-549 = A-549 cell viability in co-culture with Jurkat T cells (flow cytometry count); assay type: cell-based, human; settings: 24 h; for viability at 100 µM: Homo sapiens, A549, A-549/Jurkat T co-culture, IFN-γ stimulated, read-out: percentage of living A-549 cells relative to non-treated co-cultures
Method: as §4, §5

c-Myc = experiment: Total c-Myc relative quantification by flow cytometry in cancer cell lines; assay type: cell-based, human; settings: 24 h
Method: The effect of these triazole derivates on c-Myc and PD-L1 was measured in three different cancer cell lines (HT-29, MCF-7, A-549) by flow cytometry. Thus, cells were incubated for 24 h with the corresponding compound at a concentration of 100 μM. Dimethyl sulfoxide (DMSO)-treated cells were used as the negative control, and a PD-L1 inhibitor, BMS-8 [29, 31], was used as a reference control. After permeabilization and fixation, cells were treated with anti-PD-L1 conjugated to AlexaFluor®647 and anti-c-Myc conjugated to fluorescein to determine the amount of both targets related to the negative control. Table 1 show the results in terms of the percentage of the detected target in relation to the negative control. This assay was carried out on cancer cell lines HT-29, MCF-7, and A-549.
To study the effect of the compounds on every biological target in cancer cell lines, the compounds were used at a 100 µM dose.
For the assay, 10^5 cells per well were incubated for 24 h with the corresponding dose of the tested compound in a total volume of 500 μL of their growth media.
To detect total PD-L1 and c-Myc, after the cell treatments, they were collected and fixed with 4% in PBS paraformaldehyde. After fixation, a treatment with 0,5% in PBS Triton™ X-100 was performed, and finally, cells were stained with FITC Mouse monoclonal Anti-c-Myc (ab223913) and Alexa Fluor® 647 Rabbit monoclonal Anti-PD-L1 (ab215251).

MCF-7 = MCF-7 cell viability in co-culture with Jurkat T cells (flow cytometry count); assay type: cell-based, human; settings: 24 h; for viability at 100 µM: Homo sapiens, MCF7, MCF-7/Jurkat T co-culture, IFN-γ stimulated, read-out: percentage of living MCF-7 cells relative to non-treated co-cultures; for inhibition rate of MCF-7 cell viability: co-cultured with Jurkat T cells, 100 μM
Method: as §4, §5

[1] = A549 co-cultured with Jurkat T cells
[2] = HT29 co-cultured with Jurkat T cells
[3] = MCF7 co-cultured with Jurkat T cells
[4] = A-549, 100 µM, relative to negative control (DMSO)
[5] = HT-29, 100 µM, detected target relative to negative control (DMSO)
[6] = MCF-7, 100 µM, relative to negative control (DMSO)
[7] = A-549 co-cultured with Jurkat T cells
[8] = HT-29 co-cultured with Jurkat T cells
[9] = MCF-7 co-cultured with Jurkat T cells

T1 sequence (Q9NZQ7 19-290): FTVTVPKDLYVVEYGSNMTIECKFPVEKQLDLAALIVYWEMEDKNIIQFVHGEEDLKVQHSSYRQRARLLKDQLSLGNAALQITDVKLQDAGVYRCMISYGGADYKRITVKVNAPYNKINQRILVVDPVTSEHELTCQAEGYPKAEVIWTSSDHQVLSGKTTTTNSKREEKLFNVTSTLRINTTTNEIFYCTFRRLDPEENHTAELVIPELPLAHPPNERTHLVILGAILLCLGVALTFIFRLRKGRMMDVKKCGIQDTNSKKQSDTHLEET

| SMILES | remaining activity at 100 µM (membrane PD-L1; [1]) [%] | remaining activity at 100 µM (membrane PD-L1; [2]) [%] | remaining activity at 100 µM (membrane PD-L1; [3]) [%] | %VEGFR2 (membrane) (membrane VEGFR-2; [1]) [%] | %VEGFR2 (membrane) (membrane VEGFR-2; [2]) [%] | %VEGFR2 (membrane) (membrane VEGFR-2; [3]) [%] | viability at 100 µM (Jurkat T cells; A-549/Jurkat T co-culture) [%] | viability at 100 µM (Jurkat T cells; HT-29/Jurkat T co-culture) [%] | viability at 100 µM (Jurkat T cells; MCF-7/Jurkat T co-culture) [%] | % c-Myc gene expression (c-Myc gene expression) [%] | viability at 100 µM (A-549) [%] | % c-Myc (c-Myc; [4]) [%] | % c-Myc (c-Myc; [5]) [%] | % c-Myc (c-Myc; [6]) [%] | viability at 100 µM (MCF-7) [%] | inhibition at 100 µM (membrane PD-L1; [9]) [%] | inhibition rate of MCF-7 cell viability (MCF-7) | further results |
| --- | --- | --- | --- | --- | --- | --- | --- | --- | --- | --- | --- | --- | --- | --- | --- | --- | --- | --- |
| Cc1c(COc2ccc(CN3CCCCC3C(=O)O)cc2Br)cccc1-c1ccccc1 (stereo not drawn) [BMS-8, reference compound] | 103 ± 3 | 105 ± 3 | 97 ± 33 | 104 ± 9 | 63 ± 4 | 100 ± 2 | 99 ± 9 | 148 ± 11 | 53 ± 27 | 30 ± 10 | 111 ± 9 | 142 ± 8 | 119 ± 9 | 130 ± 12 | 57 ± 7 | – | – | – |
| COc1ccc(C(OCCc2ccc(CCn3cc(-c4ccc(Br)cc4)nn3)cc2)(c2ccccc2)c2ccc(OC)cc2)cc1 [Compound 3, 1-(4-(2-(bis(4-methoxyphenyl)(phenyl)methoxy)ethyl)phenethyl)-4-(4-bromophenyl)-1H-1,2,3-triazole] | 77 ± 4 | 80 ± 2 | 52 ± 9 | 73 ± 4 | 81 ± 7 | 81 ± 4 | 86 ± 4 | 108 ± 33 | 75 ± 10 | 50 ± 7 | 75 ± 7 | 66 ± 5 | 67 ± 8 | 65 ± 4 | 45 ± 4 | 60 to 70 | around 60% | inhibition at 100 µM (membrane PD-L1; [7]): ~20%; inhibition at 100 µM (membrane PD-L1; [8]): ~20%; membrane PD-L1 inhibition rate (membrane PD-L1; MCF-7 co-cultured with Jurkat T cells, 100 μM): half; membrane VEGFR-2 inhibition rate (membrane VEGFR-2; [7]): around 20%; membrane VEGFR-2 inhibition rate (membrane VEGFR-2; [8]): around 20%; membrane VEGFR-2 inhibition rate (membrane VEGFR-2; [9]): around 20%; inhibition rate of A-549 cell viability (A-549; co-cultured with Jurkat T cells, 100 μM): active |
| COc1ccc(C(OCCc2ccc(CCn3cc(-c4cccc(Br)c4)nn3)cc2)(c2ccccc2)c2ccc(OC)cc2)cc1 [Compound 5, 1-(4-(2-(bis(4-methoxyphenyl)(phenyl)methoxy)ethyl)phenethyl)-4-(3-bromophenyl)-1H-1,2,3-triazole] | 115 | 153 ± 17 | 43 ± 6 | 92 ± 2 | 85 ± 4 | 85 ± 4 | 93 ± 9 | 48 ± 1 | 96 ± 8 | 33 ± 5 | 105 ± 3 | 72 ± 9 | 66 ± 10 | 61 ± 11 | 37 ± 5 | 60 to 70 | – | – |
| COc1ccc(C(OCCc2ccc(CCn3cc(-c4ccccc4Br)nn3)cc2)(c2ccccc2)c2ccc(OC)cc2)cc1 [Compound 7, 1-(4-(2-(bis(4-methoxyphenyl)(phenyl)methoxy)ethyl)phenethyl)-4-(2-bromophenyl)-1H-1,2,3-triazole] | 73 ± 6 | 89 ± 4 | 50 ± 14 | 89 ± 5 | 93 ± 3 | 100 ± 0 | 79 ± 11 | 70 ± 8 | 94 ± 12 | 12 ± 5 | 100 ± 4 | 67 ± 6 | 43 ± 7 | 51 ± 3 | 41 ± 4 | 60 to 70 | around 60% | – |
